Assay results: ChEMBL document CHEMBL1132343, “Carboxylic acid analogues of tamoxifen: (Z)-2-[p-(1, 2-diphenyl-1-butenyl)phenoxy]-N,N-dimethylethylamine. Estrogen receptor affinity and estrogen antagonist effects in MCF-7 cells” (J Med Chem, 1999)

How the values were obtained:
Estrogen receptor = target: T1, Estrogen receptor (Homo sapiens, UniProt P03372)
T1 sequence (P03372 whole entry): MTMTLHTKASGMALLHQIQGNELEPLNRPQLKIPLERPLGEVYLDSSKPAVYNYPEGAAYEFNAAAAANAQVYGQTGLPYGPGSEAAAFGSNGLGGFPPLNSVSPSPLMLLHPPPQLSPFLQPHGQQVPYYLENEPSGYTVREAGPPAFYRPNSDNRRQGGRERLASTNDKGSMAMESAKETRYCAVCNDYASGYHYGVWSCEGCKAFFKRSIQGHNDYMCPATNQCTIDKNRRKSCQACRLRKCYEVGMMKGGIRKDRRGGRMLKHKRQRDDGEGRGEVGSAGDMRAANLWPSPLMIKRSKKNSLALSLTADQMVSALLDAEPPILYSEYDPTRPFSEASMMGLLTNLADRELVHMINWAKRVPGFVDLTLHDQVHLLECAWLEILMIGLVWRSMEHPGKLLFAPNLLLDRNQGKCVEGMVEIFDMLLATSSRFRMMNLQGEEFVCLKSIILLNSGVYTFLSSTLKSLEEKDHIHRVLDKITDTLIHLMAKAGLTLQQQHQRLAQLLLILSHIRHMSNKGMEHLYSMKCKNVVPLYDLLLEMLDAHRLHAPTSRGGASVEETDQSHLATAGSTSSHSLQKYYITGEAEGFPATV
Description: Displacement of [3H]17-beta-estradiol from human estrogen receptor alpha

MCF7 [1] = assay: Inhibition of MCF-7 cell proliferation at 10000 nM; type: functional, Homo sapiens
MCF7 [2] = assay: Inhibition of MCF-7 cell proliferation at 100 nM; type: functional, Homo sapiens
MCF7 [3] = assay: Inhibition of estrogen-induced MCF-7 cell proliferation at 10000 nM; type: functional, Homo sapiens
MCF7 [4] = assay: Inhibition of MCF-7 cell proliferation at 10 nM; type: functional, Homo sapiens
MCF7 [5] = assay: Inhibition of MCF-7 cell proliferation at 1000 nM; type: functional, Homo sapiens

Compound	IC50 (Estrogen receptor)	Cell number (MCF7 [1])	Cell number (MCF7 [2])	Cell number (MCF7 [3])	Cell number (MCF7 [4])	Cell number (MCF7 [5])
CC/C(=C(/c1ccc(O)cc1)c1cccc(OCC(=O)O)c1)c1ccccc1	> 0.011 µM	100%	–	–	–	–
CC/C(=C(/c1ccc(OCC(=O)O)cc1)c1cccc(O)c1)c1ccccc1	1.44 µM	52%	82%	78%	99%	–
CC/C(=C(\c1ccc(O)cc1)c1ccc(OCC(=O)O)cc1)c1ccccc1	0.5 µM	102%	–	–	–	96%
O=C(O)CCCOc1ccc(/C(=C/CCc2ccccc2)c2ccc(O)cc2)cc1	0.235 µM	–	25%	18%	74%	20%
CC[C@](C)(c1ccccc1)[C@@H](c1ccc(O)cc1)c1ccc(OCCCC(=O)O)cc1	6 µM	68%	99%	–	–	102%
O=C(O)CCCOc1ccc(/C(=C/CCc2ccccc2)c2cccc(O)c2)cc1	1.7 µM	19%	91%	50%	89%	–
CC/C(=C(\c1ccccc1)c1ccc(OCCN(C)C)cc1)c1ccccc1 [TAMOXIFEN]	–	24%	72%	31%	97%	–
